The target in data set [1] is T1, RsCcO E101A mutant (Cereibacter sphaeroides, UniProt P33517+Q03736, E101A). To be noted: cited from earlier work.
Data set [2] has as its target R. sphaeroides cytochrome c oxidase (RsCcO) wild-type (Cereibacter sphaeroides, UniProt P33517+Q03736). Put plainly: biochemical. The class given is biochemical, Rhodobacter sphaeroides. To be noted: for Shape of response in ligand titration: activation at low ligand concentration followed by inhibition at higher concentration.
Data set [3] deals with T1, RsCcO E101A mutant. Put plainly: biochemical. Details: species or system Rhodobacter sphaeroides.

pIC50, pKi: −log10 of the molar value.

Chain of R. sphaeroides cytochrome c oxidase (RsCcO) wild-type (P33517 whole entry): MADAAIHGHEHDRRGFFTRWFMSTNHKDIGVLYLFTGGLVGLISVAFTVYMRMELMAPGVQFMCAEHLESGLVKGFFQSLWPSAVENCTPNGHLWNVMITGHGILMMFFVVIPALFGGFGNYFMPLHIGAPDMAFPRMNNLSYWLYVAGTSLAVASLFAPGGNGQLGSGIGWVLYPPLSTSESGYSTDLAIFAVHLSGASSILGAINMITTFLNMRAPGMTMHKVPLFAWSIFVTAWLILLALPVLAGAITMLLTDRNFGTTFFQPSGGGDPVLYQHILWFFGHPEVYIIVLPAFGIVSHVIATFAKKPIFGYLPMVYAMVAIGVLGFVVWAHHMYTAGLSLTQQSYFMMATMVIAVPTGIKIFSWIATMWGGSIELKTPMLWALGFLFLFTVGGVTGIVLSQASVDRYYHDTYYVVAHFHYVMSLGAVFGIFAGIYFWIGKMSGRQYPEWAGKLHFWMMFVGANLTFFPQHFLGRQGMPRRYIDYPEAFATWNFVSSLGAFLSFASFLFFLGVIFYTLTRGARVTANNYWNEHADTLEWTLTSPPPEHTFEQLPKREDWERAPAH
Chain of R. sphaeroides cytochrome c oxidase (RsCcO) wild-type (Q03736 26-303): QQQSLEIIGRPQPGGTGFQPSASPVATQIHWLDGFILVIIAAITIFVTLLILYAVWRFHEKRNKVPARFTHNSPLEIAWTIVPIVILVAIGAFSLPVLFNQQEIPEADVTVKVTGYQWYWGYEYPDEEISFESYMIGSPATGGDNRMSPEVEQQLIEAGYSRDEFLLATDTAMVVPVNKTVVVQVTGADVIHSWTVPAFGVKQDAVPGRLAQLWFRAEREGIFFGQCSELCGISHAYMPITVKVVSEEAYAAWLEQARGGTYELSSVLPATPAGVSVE
T1 sequence (P33517 whole entry): as the sequence (P33517 whole entry) above
T1 sequence (Q03736 26-303 E101A): as the sequence (Q03736 26-303) above, with E76A counted along it

In the case of `Nc1nc2c(ncn2[C@@H]2O[C@H](COP(=O)(O)OP(=O)(O)O)[C@@H](O)[C@H]2O)c(=O)[nH]1` [GDP], the “Effect on E101A mutant activity” value in data set [1] is “very low stimulation and no inhibition of activity”.

With `C[C@]12CC[C@H]3[C@@H](CCC4=CC(=O)CC[C@@]43C)[C@@H]1CC[C@@H]2O` [testosterone], in data set [2] (WT, 0–30 μM cytochrome c), the “Effect on RsCcO under low or high concentrations of cytochrome c” value (“Effect on RsCcO … of cytochrome c” below) is reported as “failed to affect RsCcO”. In data set [2] (WT, saturating cytochrome c), the “Effect on RsCcO activity at maximal ligand concentration” value (shortened to “Effect on RsCcO activity”) is given as “no significant effect”.

On to `C[C@]12CC[C@@H]3c4ccc(O)cc4CC[C@H]3[C@@H]1CC[C@@H]2O` [estradiol], for which, in data set [2] (WT, 0–30 μM cytochrome c), the “Effect on RsCcO … of cytochrome c” value was “failed to affect RsCcO”. The “Effect on RsCcO activity” value in data set [2] (WT, saturating cytochrome c) is listed as “no significant effect”.

Take `C[C@]12CCC(=O)C=C1CC[C@@H]1[C@@H]2[C@@H](O)C[C@@]2(C)[C@H]1CC[C@]2(O)C(=O)CO` [hydrocortisone]: the “Effect on RsCcO … of cytochrome c” value in data set [2] (WT, 0–30 μM cytochrome c) is “failed to affect RsCcO”. Besides, the “Effect on RsCcO activity” value in data set [2] (WT, saturating cytochrome c) is given as “no significant effect”.

In general, pIC50 refers to −log10 of the IC50, conventionally taken in molar units. A lower pIC50 goes with a high IC50. For orientation: pKi means −log10 of the Ki, conventionally taken in molar units. High values mean a small Ki, low ones a large Ki. As for `CC(=O)O[C@H]1C[C@@]2(C)[C@@H](C[C@@H](O)[C@H]3[C@@]4(C)CC[C@@H](O)[C@@H](C)[C@@H]4CC[C@@]32C)/C1=C(\CCC=C(C)C)C(=O)O` [Fusidic acid, fusidic acid], in data set [2], the pIC50 is 2.47 and the pKi is 2.60. Besides, the “Shape of response in ligand titration” value in data set [2] (WT, saturating cytochrome c) is given as “biphasic response”.

Turning to `C[C@]12CCC(=O)C=C1CC[C@@H]1[C@@H]2[C@@H](O)C[C@]2(C=O)[C@@H](C(=O)CO)CC[C@@H]12` [aldosterone], the “Effect on RsCcO … of cytochrome c” value in data set [2] (WT, 0–30 μM cytochrome c) was “failed to affect RsCcO”. Besides, the “Effect on RsCcO activity” value in data set [2] (WT, saturating cytochrome c) is “no significant effect”.

The term Km denotes the concentration of substrate that gives half-maximal velocity. For the compound “cytochrome c: purified bovine heart cytochrome c used as the substrate”, in data set [2] (read-out: Km of cytochrome c, RsCcO WT and E101A, unchanged by DOC inhibition), the Michaelis constant (Km) was ~1 µM.

`Nc1ncnc2c1ncn2[C@@H]1O[C@H](COP(=O)(O)OP(=O)(O)O)[C@@H](O)[C@H]1O` [ADP]: the “Effect on RsCcO activity” value in data set [2] (WT, saturating cytochrome c) is given as “no significant effect”.

As to `Nc1ncnc2c1ncn2[C@@H]1O[C@H](COP(=O)(O)OP(=O)(O)NP(=O)(O)O)[C@@H](O)[C@H]1O` [ATP analog, adenosine 5′-(β, γ-imido) triphosphate], the “Competition with DOC inhibition of RsCcO” value in data set [2] (WT, 5 mM ATP analog, DOC 0–2 mM, saturating cytochrome c) was “prevented DOC in the 0–2 mM range from inhibiting RsCcO activity”. For the same compound, in data set [2] (WT, 5 mM ligand, saturating cytochrome c), the “Effect of ligand alone on RsCcO activity” value is recorded as “no effect”. Also, the “Shape of response in ligand titration” value in data set [2] (WT, saturating cytochrome c) was “biphasic response”. The “Effect on E101A mutant activity” value in data set [1] is “very low stimulation and no inhibition of activity”.

As to `CC(C)=CCC/C(C)=C/CC/C(C)=C/CO[P@@](=O)(O)OP(=O)(O)O` (stereo in doubt) [farnesyl diphosphate], in data set [2] (WT, saturating cytochrome c), the “Effect on RsCcO activity” value was “no significant effect”.

Turning to `NC(=O)c1ccc[n+]([C@@H]2O[C@H](COP(=O)([O-])OP(=O)(O)OC[C@H]3O[C@@H](n4cnc5c(N)ncnc54)[C@H](O)[C@@H]3O)[C@@H](O)[C@H]2O)c1` [NAD^+], the “Effect on RsCcO … of cytochrome c” value in data set [2] (WT, 0–30 μM cytochrome c) is listed as “failed to affect RsCcO”. For the same compound, the “Effect on RsCcO activity” value in data set [2] (WT, saturating cytochrome c) was “no significant effect”.

With `C[C@H](CCC(=O)O)[C@H]1CC[C@H]2[C@@H]3CC[C@@H]4C[C@H](O)CC[C@]4(C)[C@H]3C[C@H](O)[C@]12C` [DOC, deoxycholate], the pIC50 in data set [2] is 2.85. Besides, the “Mode of inhibition with respect to cytochrome c” value in data set [2] (WT, 0–30 μM cytochrome c) is “noncompetitive inhibition”; in data set [3] (E101A mutant, 0–30 μM cytochrome c), “noncompetitive inhibition”. Also, the “Maximal lowering of RsCcO activity” value in data set [2] (WT, saturating cytochrome c) is recorded as “more than 90%”.

Take `CC1=C(/C=C/C(C)=C/C=C/C(C)=C/C(=O)O)C(C)(C)CCC1` [retinoic acid]: the pIC50 in data set [2] is 2.77; in data set [3], 3.72. In addition, the pKi in data set [2] is 3.85. Moreover, the “Shape of response in ligand titration” value in data set [2] (WT, saturating cytochrome c) is “biphasic response”.

For the compound `Cc1cc2nc3c(=O)[nH]c(=O)nc-3n(C[C@H](O)[C@H](O)[C@H](O)COP(=O)(O)OP(=O)(O)OC[C@H]3O[C@@H](n4cnc5c(N)ncnc54)[C@H](O)[C@@H]3O)c2cc1C` [FAD], the “Effect on RsCcO activity” value in data set [2] (WT, saturating cytochrome c) was “no significant effect”.

Values taken from paper PMC3859723 (Biochemistry, 2013).
